Experimental data as given in patent publication US20250282795A1, “EGFR Inhibitors in cancer treatment” (Celyn Therapeutics, Inc., priority 2022, published 2025).

Columns and labels:
Type in all cases: cell-based
Ba/F3 (EGFRwt) = assay: Cellular growth inhibition assay (CellTiter-Glo), Ba/F3 (EGFRwt); details: Mus musculus, BaF3, 72 h; Ba/F3 (Wild type) with 10 ng/ml rhEGF, 3 days of incubation
Method: (§1) Example E. Cellular Growth Inhibition Assay
(§2) Ba/F3(Empty vector) (Signosis), Ba/F3(Wild type) (Signosis), Ba/F3(L^858R+T790M) (Signosis), Ba/F3(A767_dupASV) (Signosis), Ba/F3(D770_N771insSVD) (Signosis), Ba/F3(H773_V774insNPH) (Signosis) were seeded at a density of 4000 cells per well in a CellBIND® 384-well Flat Clear Bottom Black Polystyrene Microplates (Coming, USA, Cat #3770) in 45 μl total volume of RPMI (PanEco, Cat #C330, Russia) with […] (HyClone, Cat #SV30160.03) and with 10 ng/ml rmIL-3 (RD systems, USA, Cat #403-ML-025) (for BaBF3(Empty vector)) and with 10 ng/ml rhEGF (ThermoFisher, USA, Cat #PHG0311L) (for BaCF3(Wild type)). 500× compounds solutions in DMSO (Sigma Cat #D2650) were prepared into Cmpnds plate (DiamondWell Plate, Axigen, Cat #P-384-120SQ-C—S) and DMSO only control was included. 1.l of 500× compounds (Cmpnds plate) was added to 49 µl of culture medium into Dilution plate (Diamond Well Plate, Axigen, Cat #P-384-120SQ-C—S), mixed and then 5 μl of 10× compounds solutions were transferred to cells followed by centrifugation at 100 g for 1 min. Final DMSO concentration was 0.2% o. After 3 days of incubation 10.l of CellTiter-Glo (Promega, CAT #G7572) were added to the cells, plate was centrifuged at 100 g for 1 min and luminescence signal was measured using Microplate Reader (CLARIOStar).

Ba/F3 (L858R + T790M) = assay: Cellular growth inhibition assay (CellTiter-Glo), Ba/F3 (L858R+T790M); details: Mus musculus, BaF3, 72 h; 3 days of incubation
Method: as §1, §2

Ba/F3 (A767_dupASV) = assay: Cellular growth inhibition assay (CellTiter-Glo), Ba/F3 (A767_dupASV); details: Mus musculus, BaF3, 72 h; 3 days of incubation; read-out: Ba/F3 (A767_dup ASV) CC50
Method: as §1, §2

Ba/F3 (D770_N771insSVD) = assay: Cellular growth inhibition assay (CellTiter-Glo), Ba/F3 (D770_N771insSVD); details: Mus musculus, BaF3, 72 h; 3 days of incubation; read-out: Ba/F3 (D770_N771 insSVD) CC50
Method: as §1, §2

Ba/F3 (H773_V774insSVD) = assay: Cellular growth inhibition assay (CellTiter-Glo), Ba/F3 (H773_V774insSVD); details: Mus musculus, BaF3, 72 h; 3 days of incubation; read-out: Ba/F3 (H773_V774 insSVD) CC50
[1] = Cellular growth inhibition assay (CellTiter-Glo), Ba/F3 (Empty vector); details: mouse, Ba/F3 cells with empty vector; Ba/F3 (Empty vector) with 10 ng/ml rmIL-3, 3 days of incubation
Method: as §1, §2

Structure (SMILES) | CC50 (Ba/F3 (EGFRwt)) | CC50 (Ba/F3 (L858R + T790M)) | CC50 (Ba/F3 (A767_dupASV)) | CC50 (Ba/F3 (D770_N771insSVD)) | CC50 (Ba/F3 (H773_V774insSVD)) | CC50 at 3 days [1]
COc1c(F)cccc1Nc1c2[nH]c3c1C(=O)NCC3C/C=C/COc1cccc(c1)COc1cnccc1-2 (centres unmarked) [Compound 29, (19E)-28-[(3-Fluoro-2-methoxyphenyl)amino]-3,22-dioxa-6,11,15-triazapentacyclo[21.3.1^10,13.0^4,9.0^12,17]octacosa-1(27),4,6,8,10(28),12,19,23,25-nonaen-14-one] | 0.1 to 1 µM | 1 to 10 µM | 0.1 to 1 µM | 0.1 to 1 µM | 1 to 10 µM | > 10 µM
COc1c(F)cccc1Nc1c2[nH]c3c1C(=O)NCC3C/C=C\CCCC(=O)N1CCCC(COc3cnccc3-2)C1 (centres unmarked) [Compound 117, 25-[(3-Fluoro-2-methoxyphenyl)amino]-7,8,9,10,14,15,18,18a,19,20-decahydro-6H-7,11-methano-22,24-methenodipyrido[3,4-b:4′,3′-f][1,5,15]oxadiazacycloicosine-12,21(13H,23H)-dione] | 0.1 to 1 µM | 1 to 10 µM | 0.01 to 0.1 µM | 0.1 to 1 µM | 1 to 10 µM | > 10 µM
COc1c(F)cccc1Nc1c2[nH]c3c1C(=O)NCC3C/C=C/CCCC(=O)N1CCCC(COc3cnccc3-2)C1 (centres unmarked) [Compound 118, 25-[(3-Fluoro-2-methoxyphenyl)amino]-7,8,9,10,14,15,18,18a,19,20-decahydro-6H-7,11-methano-22,24-methenodipyrido[3,4-b:4′,3′-f][1,5,15]oxadiazacycloicosine-12,21(13H,23H)-dione] | 1 to 10 µM | 1 to 10 µM | 0.1 to 1 µM | 1 to 10 µM | 1 to 10 µM | 1 to 10 µM
COc1c(F)cccc1Nc1c2[nH]c3c1C(=O)NCC3CCCCCCC(=O)N1CCCC(COc3cnccc3-2)C1 (centres unmarked) [Compound 119, 25-[(3-Fluoro-2-methoxyphenyl)amino]-7,8,9,10,14,15,16,17,18,18a,19,20-dodecahydro-6H-7,11-methano-22,24-methenodipyrido[3,4-b:4′,3′-f][1,5,15]oxadiazacycloicosine-12,21(13H,23H)-dione] | 1 to 10 µM | > 10 µM | 0.1 to 1 µM | 1 to 10 µM | > 10 µM | > 10 µM
COc1c(F)cccc1Nc1c2[nH]c3c1C(=O)NCC3CCCCN(C)CCOc1cnccc1-2 (centres unmarked) [Compound 127, 19-[(3-Fluoro-2-methoxyphenyl)amino]-8-methyl-6,7,8,9,10,11,12,12a,13,14-decahydro-16,18-methenodipyrido[3,4-i:4′,3′-m][1,4,11]oxadiazacyclotetradecin-15(17H)-one] | 1 to 10 µM | > 10 µM | 1 to 10 µM | > 10 µM | > 10 µM | > 10 µM
COc1c(F)cccc1Nc1c2[nH]c3c1C(=O)NC(CC=CCOCCOc1cnccc1-2)C3 (centres unmarked) [Compound 128, 20-(3-fluoro-2-methoxyanilino)-2,3,5,8,9,10-hexahydro-9,13-methano-12,15-(metheno)pyrido[3,4-e][1,4,8,12]dioxadiazacycloheptadecin-11(14H)-one] | 1 to 10 µM | > 10 µM | 1 to 10 µM | > 10 µM | > 10 µM | > 10 µM
COc1c(F)cccc1Nc1c2[nH]c3c1C(=O)NCC3CCCCCCN1CCCC(COc3cnccc3-2)C1 (centres unmarked) [Compound 129, 24-(3-fluoro-2-methoxyanilino)-7,8,9,10,13,14,15,16,17,17a,18,19-dodecahydro-6H,12H-7,11-methano-21,23-(metheno)dipyrido[3,4-b: 4′,3′-f][1,5,14]oxadiazacyclononadecin-20(22H)-one] | 0.1 to 1 µM | 1 to 10 µM | 0.001 to 0.01 µM | 0.01 to 0.1 µM | 0.1 to 1 µM | > 10 µM
COc1c(F)cccc1Nc1c2[nH]c3c1C(=O)NCC3CC(=O)N1CCN(CCOc3cnccc3-2)CC1 (centres unmarked) [Compound 131, 20-(3-fluoro-2-methoxyanilino)-6,7,9,10,13,13a,14,15-octahydro-12H-8,11-ethano-17,19-(metheno)dipyrido[3,4-j: 4′,3′-n][1,4,7,12]oxatriazacyclopentadecine-12,16(18H)-dione] | 0.01 to 0.1 µM | 0.1 to 1 µM | 0.001 to 0.01 µM | 0.01 to 0.1 µM | 0.1 to 1 µM | 1 to 10 µM
COc1c(F)cccc1Nc1c2[nH]c3c1C(=O)NCC3CC(=O)NCC(=O)NCCCOc1cnccc1-2 (centres unmarked) [Compound 132, 21-(3-fluoro-2-methoxyanilino)-6,7,8,9,11,12,14,14a,15,16-decahydro-18,20-(metheno)dipyrido[3,4-k: 4′,3′-o][1,5,8,13]oxatriazacyclohexadecine-10,13,17(19H)-trione] | > 10 µM | > 10 µM | 1 to 10 µM | > 10 µM | > 10 µM | > 10 µM
COc1c(F)cccc1Nc1c2[nH]c3c1C(=O)NCC3CCCOCCN(C)CCCOc1cnccc1-2 (centres unmarked) [Compound 145, 22-(3-fluoro-2-methoxyanilino)-9-methyl-6,7,8,9,10,11,13,14,15,15a,16,17-dodecahydro-19,21-(metheno)dipyrido[3,4-i: 4′,3′-m][1,8,4,12]dioxadiazacycloheptadecin-18(20H)-one] | > 10 µM | > 10 µM | 0.01 to 0.1 µM | 0.01 to 0.1 µM | 0.1 to 1 µM | > 10 µM
COc1c(F)cccc1Nc1c2[nH]c3c1C(=O)NC[C@@H]3CC(=O)N1CCC[C@H]1C(=O)NCCCOc1cnccc1-2 [Compound 147, (16aS,22aS)-23-(3-fluoro-2-methoxyanilino)-14,15,16a,17,18,19,22,22a-octahydro-2H,12H-4,6-(metheno)dipyrido[3,4-k: 4′,3′-o]pyrrolo[2,1-g][1,5,8,13]oxatriazacyclohexadecine-3,16,21(1H,5H,13H)-trione] | > 10 µM | > 10 µM | > 10 µM | > 10 µM | > 10 µM | > 10 µM
COc1c(F)cccc1Nc1c2[nH]c3c1C(=O)NCC3CCCN1CCC(COc3cnccc3-2)C1 (centres unmarked) [Compound 161, 20-(3-fluoro-2-methoxyanilino)-6,7,8,9,11,12,13,13a,14,15-decahydro-7,10-methano-17,19-(metheno)dipyrido[3,4-b: 4′,3′-f][1,5,11]oxadiazacyclopentadecin-16(18H)-one] | – | 1 to 10 µM | 0.01 to 0.1 µM | 0.1 to 1 µM | 1 to 10 µM | > 10 µM
COc1c(F)cccc1Nc1c2[nH]c3c1C(=O)NCC3CCCCCCNCCOc1cnccc1-2 (centres unmarked) [Compound 164, 21-(3-fluoro-2-methoxyanilino)-6,7,8,9,10,11,12,13,14,14a,15,16-dodecahydro-18,20-(metheno)dipyrido[3,4-k: 4′,3′-o][1,4,13]oxadiazacyclohexadecin-17(19H)-one] | – | 1 to 10 µM | 0.01 to 0.1 µM | 0.01 to 0.1 µM | 0.1 to 1 µM | > 10 µM
COc1c(F)cccc1Nc1c2[nH]c3c1C(=O)NCC3CCCN1CCCC(C1)Oc1cnccc1-2 (centres unmarked) [Compound 166, 20-(3-fluoro-2-methoxyanilino)-6,7,8,9,11,12,13,13a,14,15-decahydro-6,10-methano-17,19-(metheno)dipyrido[3,4-b: 4′,3′-f][1,5,11]oxadiazacyclopentadecin-16(18H)-one] | – | 1 to 10 µM | 0.001 to 0.01 µM | 0.01 to 0.1 µM | 0.1 to 1 µM | > 10 µM
COc1c(F)cccc1Nc1c2[nH]c3c1C(=O)NC[C@@H]3CCCN1CCC[C@@H]1COc1cnccc1-2 [Compound 167, (12aR)-20-[(3-fluoro-2-methoxyphenyl)amino]-1,2,12a,13,14,15,17,18,19,19a-decahydro-12H-4,6-methenodipyrido[3,4-h:4′,3′-l]pyrrolo[2,1-c][1,4,10]oxadiazacyclotridecin-3(5H)-one] | – | 1 to 10 µM | 0.01 to 0.1 µM | 0.1 to 1 µM | 0.1 to 1 µM | > 10 µM
